{"source": "patent US4279915A", "about": "“Method of treatment using new leurosine derivatives” (priority 1973, dated 1981)", "key": {"[1]": {"test_system": "S 37 ascites sarcoma", "test": "antitumor effect on S 37 ascites sarcoma", "format": "in vivo", "source_text": "(§1) The treatment extends the life span of animals suffering from L-1210 lymphoid leukemia, s37 ascites sarcoma or Yoshida ascites sarcoma by about 150 to 250 percent.\n(§2) EFFECT OF F-LEUROSINE ON ASCITIC TUMORS"}, "[2]": {"test_system": "haemoblastoses and leukemia", "test": "clinical treatment of patients with haemoblastoses and leukemia (Example A)", "format": "in vivo, human", "method": "Based on the experiences obtained on 17 patients during the first half-year, further 8 patients with haemoblastoses and leukemia were given treatment. The patients were given daily 0.05 mg/kg single doses. The clinical examinations during the second half-year were performed with the same daily dose, but with different total doses. The smallest total amount meant 3, the highest 12 subsequent doses. The dosage was tested both in forms of sequential and intermittent treatment.\n3 patients out of 8 received the drug sequentially, which meant single doses on subsequent days, the remaining 5 patients were given intermittent treatment.\nThe intermittent treatment was made in two ways: 1. Single doses through 3 days, followed by 5 days interval as total up to an amount of 12 times 0.05 mg/kg. 2. Single dose on the first day, followed by 3 days interval, up to a total amount of 12 times 0.05 mg/kg.\nThe route of administration was always intravenous, 1 mg active substance was dissolved in 10 ml physiological saline."}, "[3]": {"test_system": "Swiss mice", "test": "acute toxicity in Swiss mice", "format": "in vivo, mouse", "source_text": "(§3) ACUTE TOXICITY IN SWISS MICE\n(§4) Table III lists the comparative toxicological data concerning Vincristine, Vinblastine and F-leurosine. The new analogue is approximately 7 times less toxic than Vincristine and 4 times less toxic than Vinblastine in acute rodent experiments."}, "[4]": {"test": "acute toxicity in Swiss mice", "format": "in vivo, mouse", "conditions": "mouse, in vivo, Swiss mice", "source_text": "as §3, §4"}, "[5]": {"test_system": "leukemia", "test": "Phase I trial, escalation and evaluation period", "format": "in vivo, human", "conditions": "up to 0.05 mg/kg/day i.v. six consecutive days, escalation period", "method": "Fourteen patients were treated. The patient selection met the following criteria: (a) all types of leukemia, (b) all patients previously treated without success, (e) no X-ray or chemotherapy was administered four weeks prior to therapy, (d) at least eight weeks follow-up. In the escalation period 0.01 mg/kg/day i.v. was given five consecutive days as initial dose.\nDOSAGE OF F-LEUROSINE IN PHASE I TRIAL\nIn addition, eight patients were added to the group treated on the basis of this schedule."}, "[6]": {"test_system": "Yoshida ascites sarcoma", "test": "antitumor effect on Yoshida ascites sarcoma", "format": "in vivo", "source_text": "as §1, §2"}, "[7]": {"test_system": "VX-2 rabbit epitheloma", "test": "growth inhibition of VX-2 rabbit epitheloma", "format": "in vivo"}, "[8]": {"conditions": "0.05 mg/kg daily dose, applied 3-12 times"}}, "data": [{"smiles": "CCC12CN3CCc4c([nH]c5ccccc45)[C@@](C(=O)OC)(c4cc5c(cc4OC)N(C=O)[C@H]4[C@@](O)(C(=O)OC)[C@H](OC(C)=O)[C@]6(CC)C=CCN7CC[C@]54[C@@H]76)C[C@@H](C3)C1O2", "note": "(stereo partly shown) [N-formyl-leurosine]", "values": [{"measurement": "Tumor free", "setting": "[1]; 4 × 2.5 mg/kg i.p. daily", "result": "4/6"}, {"measurement": "Tumor inhibition", "setting": "[1]; 4 × 2.5 mg/kg i.p. daily", "result": 100}, {"measurement": "Survival", "setting": "[1]; 8 × 1.0 mg/kg i.p. daily", "result": 268}, {"measurement": "Tumor free", "setting": "[1]; 8 × 1.0 mg/kg i.p. daily", "result": "1/6"}, {"measurement": "extension of life span", "setting": "[1]; s37 ascites sarcoma, about", "result": "150-250%"}, {"measurement": "side effects", "setting": "[2]; [8]", "result": "does not produce any side effects"}, {"measurement": "untoward neurological symptoms", "setting": "[2]; [8]", "result": "No untoward symptoms of a neurological respect appear"}, {"measurement": "objective improvement", "setting": "[2]; 0.05 mg/kg daily i.v., complete treatments", "result": "all complete treatments were followed by objective improvement"}, {"measurement": "Complete remission", "setting": "[2]; 0.05 mg/kg daily i.v., leukemic patients", "result": "both leukemic patients had complete remission"}, {"measurement": "effectiveness in acute leukemia and lymphomas", "setting": "[2]; phase I examinations, acute leukemia (myeloblast and lymphoblast type) and lymphomas", "result": "equally effective in acute leukemia (myeloblast and lymphoblast type), and in lymphomas"}, {"measurement": "cytostatic effect", "setting": "[2]; summary", "result": "very effective cytostatic"}, {"measurement": "times less toxic than Vinblastine", "setting": "[3]; acute rodent experiments", "result": "~4", "unit": "times"}, {"measurement": "times less toxic than Vincristine", "setting": "[3]; acute rodent experiments", "result": "approximately 7 times"}, {"measurement": "signs of neurotoxicity", "setting": "[3]; even subluthal doses, experimental animals", "result": "did not show any signs of neurotoxicity"}, {"measurement": "toxicity relative to vinblastine", "setting": "[3]; i.p., on mice (text b8)", "result": "about five times less toxic than vinblastine"}, {"measurement": "toxicity relative to vincristine", "setting": "[3]; i.p., on mice (text b8)", "result": "about ten times less toxic than vincristine"}, {"measurement": "LD50", "setting": "[4]; ip, 1 x i.p.", "result": 28.8, "unit": "mg/kg"}, {"measurement": "LD50", "setting": "[4]; iv, 1 x i.v.", "result": 32.5, "unit": "mg/kg"}, {"measurement": "antitumor activity", "setting": "[5]", "result": "striking antitumor activity"}, {"measurement": "signs of toxicity", "setting": "[5]", "result": "without signs of toxicity"}, {"measurement": "Survival", "setting": "[6]; 9 × 0.5 mg/kg i.p. daily", "result": 143}, {"measurement": "Tumor free", "setting": "[6]; 9 × 0.5 mg/kg i.p. daily", "result": "0/6"}, {"measurement": "Survival", "setting": "[6]; 9 × 1.0 mg/kg i.p. daily", "result": 173}, {"measurement": "Tumor free", "setting": "[6]; 9 × 1.0 mg/kg i.p. daily", "result": "2/6"}, {"measurement": "Survival", "setting": "[6]; 9 × 2.0 mg/kg i.p. daily", "result": 243}, {"measurement": "Tumor free", "setting": "[6]; 9 × 2.0 mg/kg i.p. daily", "result": "4/6"}, {"measurement": "extension of life span", "setting": "[6]; Yoshida ascites sarcoma, about", "result": "150-250%"}, {"measurement": "growth inhibition", "setting": "[7]", "result": "remarkable growth inhibition"}]}]}
